# Test results from US20210294217A1, “ACTINIC RAY-SENSITIVE OR RADIATION-SENSITIVE RESIN COMPOSITION, RESIST FILM, PATTERN FORMING METHOD, AND METHOD FOR MANUFACTURING ELECTRONIC DEVICE” (FUJIFILM Corporation, priority 2019, published 2021).
# Experiment: acid dissociation constant pKa determined by computation (ACD/Labs Software Package 1; Gaussian 16 DFT where not calculable)
# Settings: acid generated from photoacid generator B
# Excerpt: In the present specification, an acid dissociation constant (pKa) represents a pKa in an aqueous solution, and is specifically a value determined by computation from a value based on a Hammett's substituent constant and database of publicly known literature values, using the following software package 1. Any of the pKa values described in the present specification indicates values determined by computation using the software package.
# Software Package 1: Advanced Chemistry Development (ACD/Labs) Software V 8.14 for Solaris (1994-2007 ACD/Labs).
# As described above, the pKa in the present specification refers to a value determined by computation from a value based on a Hammett's substituent constant and database of publicly known literature values, using the software package 1, but in a case where the pKa cannot be calculated by the method, a value obtained by Gaussian 16 based on density functional theory (DFT) shall be adopted.
# In addition, the pKa in the present specification refers to a “pKa in an aqueous solution” as described above, but in a case where the pKa in an aqueous solution cannot be calculated, a “pKa in a dimethyl sulfoxide (DMSO) solution” shall be adopted.
# Furthermore, in the measurement of the acid dissociation constant pKa of an acid generated from the photoacid generator B, specifically, the pKa is a value determined by subjecting a compound formed by substituting each cationic moiety in the compounds B-1 to B-25 with H^+ (for example, in a case of the compound B-1, a compound formed by substituting the triphenylsulfonium cation with H^+) to computation from a value based on a Hammett's substituent constant and database of publicly known literature values, using Software Package 1 of ACD/Labs, as described above. In addition, in a case where pKa could not be calculated by the method, a value obtained by Gaussian 16 based on density functional theory (DFT) was adopted.
# In the following table, “pKa1” represents an acid dissociation constant of the first stage, “pKa2” represents an acid dissociation constant of the second stage, and “pKa3” represents an acid dissociation constant of the third stage. A smaller value of pKa means a higher acidity. […]
row,SMILES,Difference between acid dissociation constant a1 and acid dissociation constant a2
1,O=C(NS(=O)(=O)C(F)(F)C(F)(F)C(F)(F)S(=O)(=O)NS(=O)(=O)C(F)(F)F)c1cc(C(F)(F)F)cc(C(F)(F)F)c1 [B-24],9.95
2,CC1(C)C2CCC1(CS(=O)(=O)NC(=O)C(F)(F)C(F)(F)C(F)(F)F)C(OC(=O)C(F)S(=O)(=O)O)C2 (centres unmarked) [B-8],2.20
3,O=C(O)CCCOC(=O)C(CS(=O)(=O)O)C(F)(F)F (centres unmarked) [B-14],3.63
4,CS(=O)(=O)NC(=O)C(F)(F)C(F)(F)C(F)(F)C(=O)OCC(F)S(=O)(=O)O (centres unmarked) [B-5],2.55
5,O=C(OCCCS(=O)(=O)O)C(F)(F)S(=O)(=O)O [B-6],4.82
6,O=C(O)N1CCN(S(=O)(=O)C(F)(F)C(F)(F)C(F)(F)S(=O)(=O)NS(=O)(=O)C(F)(F)F)CC1 [B-13],15.11
7,O=C(CC(F)(F)F)NS(=O)(=O)C(F)(F)C(F)(F)C(F)(F)S(=O)(=O)NS(=O)(=O)C(F)(F)F [B-22],10.35
8,O=C(COC(=O)C(F)(F)S(=O)(=O)O)NC(=O)C(F)(F)F [B-4],9.23
9,O=C(O)C(F)(F)C(F)(F)C(F)(F)C(=O)OC12CC3CC(CC(COC(=O)C(F)(F)S(=O)(=O)O)(C3)C1)C2 [B-3],2.92
10,O=C(O)C1CCCCC1C(=O)OCC(F)C(F)(F)S(=O)(=O)O (centres unmarked) [B-17],7.24
11,O=S(=O)(O)NCCOC1CCCC(C(F)(F)S(=O)(=O)O)C1 (centres unmarked) [B-18],3.2
